# Legend:
# AMPAR [1] = assay: positive allosteric modulation of the AMPAR by CMPDA reagents; type: cell-based
# From the text: To complete the bidirectional ionotropic toolkit, allosteric modulators of the AMPAR were explored. For many pharmaceuticals of this class, including cyclothiazide, two drug molecules are known to bind in close proximity, one on each side of the interface between adjacent ligand-binding domains. Thus, newer pharmaceuticals of this class were focused on, which can span the two binding sites simultaneously, reasoning that it would be easier to accommodate a single tether into the binding interface. In particular, CMPDA (phenyl-1,4-bisalkylsulfonamide) was focused on, owing to its structural simplicity and availability of an experimental atomic structure. […] A synthetic scheme to resynthesize CMPDA while installing a short PEG spacer domain at a point of attachment was devised to allow tether access from the allosteric binding site to free solution. […] Altering the electrostatic properties of the spacer domain was explored. In silico docking and experimental iteration to redesign the electronegative spacer (CCOCCOCC) into a polar neutral spacer (CBNCCCNC) was used, yielding CMPDA.2alkyne, which was converted into the full-length CMPDA.2DART.2.
# GABAAR [2] = assay: cerebellar slice voltage-clamp, tonic GABAAR current in granule cells; type: cell-based, mouse
# From the text: (§1) (FIG. 4A) Validation of gabazine.1^DART.2 in cerebellar slice. Top: voltage-clamp schematic. Bottom: tonic GABAAR in granule cells expressing ^+HTP or ^ddHTP. […] Data are mean±SEM, cells normalized to baseline. (FIG. 4B) In vivo delivery of gabazine.1^DART.2 to cerebellar granule cells. Top right: schematic of experimental approach, GCaMP6f granule-cell activity obtained in the absence of sensory stimuli. Top left: example field of view, GCaMP6f signal averaged across trials. Bottom: example calcium traces (ΔF/F) in an awake ^+HTP mouse before (baseline) and after (1 μL of 1 μM gabazine.1^DART.2) infusion. (FIG. 4C) In vivo, 1 μL of 1 μM gabazine.1^DART.2 to ^+HTP mice. Color indicates ΔF/F, each row is one cell before (left) and after (right) gabazine.1^DART.2 infusion. […] (FIG. 4D) In vivo, 1 μL of 1 μM gabazine.1^DART.2 to ^ddHTP mice. Format as in panel C. […] (FIG. 4E) Validation of gabazine.7^DART.2 in VTA slice. Top: evoked-IPSC configuration. […] Data are mean±SEM, cells normalized to baseline. […] Data are mean±SEM, normalized to baseline speed of each animal.
# Next, the feasibility of using DART.2 for GABAAR antagonism in live mice was explored. […] Whether this sparsity results from low excitatory drive, or high inhibitory GABAAR tone, has been difficult to address with prior tools. For example, one may attempt to reduce inhibition onto granule cells by silencing local GABA-producing neurons [golgi cells]. However, this would disinhibit local excitatory neurons [unipolar brush cells]. Thus the approach would inadvertently elevate excitatory drive onto granule cells, concomitant with the desired goal of reducing their inhibition, confounding interpretation. […] AAV DIO ^+HTPGPI or AAV DIO ^ddHTPGPI were expressed along with GCaMPxx in xxx-Cre mice; 2p. […] Next, in vivo experiments, using two-photon imaging of granule cells were performed.
# endogenous GABAARs = assay: all-optical assay of GABAAR antagonism in primary neuronal culture; type: cell-based, rat
# Protocol: (§2) Cultured neuronal assays: Preparation of hippocampal cultures: Mixed glial and neuronal cultures were prepared from the hippocampus of postnatal day 0 to 1 Sprague-Dawley rat pups. Separate pools of dissociated cells were transfected via electroporation (LONZA, V4SP-3096) with plasmid constructs, and depending on assay directives, either plated individually or mixed with a different pool of electroporated cells after a 10 min recovery period. Cells were cultured on coverslips (Deckglaser) pre-treated with high molecular weight poly-D-lysine (Sigma, P7405; 0.05 mg/mL) in 24-well plates and maintained in NbActiv4 (BrainBits, Nb4-500) at 37 C, 5% CO2. Media was changed by half at DIV3 or 4 and then weekly thereafter; experiments were performed between DIV16 to DIV18.
# Gabazine: Dissociated neurons were electroporated with constructs and cultured for 2 weeks. The assay was performed in the same BASE solution as described above, but with the addition of synaptic blockers CPP (NMDAR antagonist; Tocris) and NBQX (AMPAR antagonist; Abcam, ab120046) to isolate GABAR activity, and a small amount of GABA (GABAR agonist; Sigma) to ensure GABAR activity (=GABAR-BASE). […] Instead, a high dose of regular gabazine was used to completely silence any cells that may not have had realized full antagonism by the end of the assay. Imaging alignment, proof-reading and analysis were performed in a similar fashion to the AMPAR assay using MatLab.
# It was next focused on blocking the GABAAR, a ubiquitous transducer of synaptic inhibition. […] The structure-activity literature of gabazine, a selective GABAAR antagonist, was explored. The core gabazine pharmacophore includes of a 3-amino, 6-phenoxy-pyridazine ring, with GABA embedded in the 2-position (2 butyric acid). Based on historical, low-potency predecessors of gabazine, a longer GABA moiety (2 pentanoic acid), and methyl substituents (e.g., 5-CH3) were explored (FIG. 2F). For each variant, the 6-phenoxy moiety was modified to make a gabazinealkyne module, which was click-conjugated to DART.2. Several variants were made, including gabazine.1^DART.2 (2 butyric acid, 5-H), gabazine.5DART.2 (2 pentanoic acid, 5-H), and gabazine.7DART.2 (2 pentanoic acid, 5-CH3). An all-optical assay of endogenous GABAARs in primary neuronal culture was then developed. […] Excitatory synapses were blocked, such that opto-stimulation with ChR2 became the only source of neural excitation.
# endogenous AMPARs = assay: all-optical cultured-neuron assay of AMPAR-dependent synaptic transmission; type: cell-based, rat; conditions: DW=Rx50/HTL50; ddHTP vs +HTP cells, 15 min
# Protocol: as §2
# cerebellar granule cells = assay: in vivo two-photon GCaMP imaging of cerebellar granule cells; set-up: species or system mouse; conditions: local infusion, 1 μL of 1 μM
# From the text: as §1
# Next, the feasibility of using DART.2 for GABAAR antagonism in live mice was explored. […] Whether this sparsity results from low excitatory drive, or high inhibitory GABAAR tone, has been difficult to address with prior tools. […]
# GABAAR [3] = assay: whole-mount retina, GABAAR-mediated evoked IPSC in retinal ganglion cells; type: cell-based, mouse; conditions: 300 nM, 15 min
# Protocol: (§3) (FIG. 6A) Viral strategy (top panel). […] Experimental overview (second panel from the top to bottom panel). Top: whole retina; synaptic current is evoked (stim) and recorded (voltage-clamp of dTomato+ RGC), with ionic and pharmaceutical conditions chosen to isolate the AMPAR or GABAAR. A 10 min baseline is followed by 15 min application of 300 nM Rx^DART.2+30 nM Alexa^647.1DART.2. […] (FIG. 6B) CMPDA.2^DART.2 (left). Electropositive spacer (PDB 3RNN). […] AMPAR structural model (middle) (composite of PDB 5WEO, 3RNN, and 1FTL). Cylinder depicts cell membrane. […] YM90K.1^DART.2 (right). Structural model (PDB 1FTL). […] (FIG. 6C) diazepam.1^DART.2 (left). Structural model (PDB 6HUP). […] GABAAR (middle) structural model (composite of PDB 6HUP and 6HUK). […] Structural model (PDB 6HUK).
# (§4) Preparation of Retina: Mice were intravitreal injected AAV10 HaloTag™-dTomato to eyes. After 8-12 weeks, the mice killed by cervical dislocation. Both eyes were removed and dissected under a stereo-microscope. Retinas were isolated from the eyecups and placed in oxygenated (95% O2/5% CO2) cold-Ames medium (Sigma-Aldrich), supplemented with 21 mM NaHCO3. After the vitreous body was removed, a retina was cut into 3 pieces, leaving each retina piece attached to a filter paper with 2 mm hole by retina ganglion-cell-side-down. The pieces of retina were stored in bubbled Ames solution at room temperature, then transferred to recording chamber with retina ganglion-cell-side-up for recording.
# (§5) Whole-cell patch-clamp recording: The brain slices or retinas were perfused with bubbled aCSF at 29-30° C. with a 2 ml/min flow rate. Recordings were made by whole cell patch recording techniques using a Multiclamp 700B amplifier (Molecular Devices, Axon Instruments Inc., Union City, CA). The signals were filtered at 10 KHz and acquired using Digitate 1440A and pClamp 10.7 (Molecular Devices). The recording pipettes (4 MΩ-6 MΩ) were filled with internal solutions. For GABAA receptor-mediated evoked inhibitory postsynaptic currents ([…]) recording, the pipettes filled with Cesium Chloride-based internal solution (in mM) 135 CsCl, 2 MgCl2, 0.5 EGTA, 10 HEPES, 4 Mg-ATP, 0.5 Na-GTP, 10 Na2-phosphocreatine, and QX314 (lidocaine N-ethyl bromide), pH adjusted to 7.3 with CsOH (290 mosm). For AMPA-receptor mediated evoked excitatory postsynaptic currents (eEPSCs) recording, the pipette solution contained (in mM) 130 CsMeS, 1 MgCl2, 0.5 EGTA, 10 HEPES, 4 Mg-ATP, 0.5 Na-GTP, 10 Na2-phosphocreatine, and 4 QX314, pH adjusted to 7.3 with CsOH (290 mosm). For experiment of brain slices and retinas, the eIPSCs or eEPSCs were elicited by electrical stimuli at 0.067 Hz in 0.3-ms duration and 150-300-ρA (60-70% maximum responses) stimulation intensity at a holding potential of −70 mV. The stimulating electrode was placed within 60-100 μm from the recording neuron under voltage-clamp mode. GABA-receptor mediated eIPSCs were isolated in the presence of DNQX ([…] AMPAR antagonist) and AP-V ([…] antagonist) in the bath solution. For AMPA-receptor mediated eEPSCs, added picrotoxin ([…], GABAAR antagonist) and AP-V ([…]) to the bath solution.
# AMPAR [4] = assay: whole-mount retina, AMPAR-mediated evoked EPSC in retinal ganglion cells; type: cell-based, mouse; conditions: 300 nM, 15 min
# Protocol: as §3, §4, §5
structure (smiles),measurement,setting,value
"C#CCOCCOCCOCCOCCOCCOCCC(CNS(=O)(=O)C(C)C)c1ccc(CCNS(=O)(=O)C(C)C)cc1 (stereo not drawn) [CMPDA.1alkyne, N-(2-{4-[23-(propane-2-sulfonamido)-4,7, 10, 13, 16, 19-hexaoxatricos-1-yn-22-yl]phenyl}ethyl)propane-2-sulfonamide]",positive modulation of the AMPAR,AMPAR [1],retained its ability to positively modulate the AMPAR
"COc1ccc(-c2ccc(=N)n(CCCC(=O)O)n2)cc1 [gabazine, reference compound]",GABAAR current after subsequent application,GABAAR [2]; traditional gabazine,blocks all GABAAR current
same,effect on +HTP vs ddHTP cells,endogenous GABAARs; traditional (non-DART) version,equally affected
"O=C(CCCn1c(=O)c(=O)[nH]c2cc([N+](=O)[O-])c(-n3ccnc3)cc21)NCCOCCOCCOCCOCCOCCOCc1cn(CCOCCOCCOCCOCCOCCOCCOCCOCCOCCOCCOCCOCCOCCOCCOCCOCCOCCOCCOCCOCCOCCOCCOCCOCCOCCOCCOCCOCCOCCOCCOCCOCCOCCOCCOCCOCCC(=O)NCCOCCOCCCCCCCl)nn1 [YM90K.1DART.1, 1-(4-(24-(7-(1H-imidazol-1-yl)-6-nitro-2,3-dioxo-3,4-dihydroquinoxalin-1 (2H)-yl)-21-oxo-2,5,8, 11, 14, 17-hexaoxa-20-azatetracosyl)-1H-1,2,3-triazol-1-yl)-N-(2-(2-((6-chlorohexyl)oxy)ethoxy)ethyl)-3,6,9, 12, 15, 18, 21, 24, 27, 30, 33, 36, 39, 42, 45, 48, 51, 54, 57, 60, 63, 66, 69, 72, 75, 78, 81, 84, 87, 90, 93, 96, 99, 102, 105, 108-hexatriacontaoxaundecahectan-111-amide]",DW (t=15 m),endogenous AMPARs,30
COc1cc(CCCCl)ccc1CCOCCNC(=O)c1ccc(CNC(=O)CCOCCOCCOCCOCCOCCOCCOCCOCCOCCOCCOCCOCCOCCOCCOCCOCCOCCOCCOCCOCCOCCOCCOCCOCCOCCOCCOCCOCCOCCOCCOCCOCCOCCOCCOCCOCCn2cc(COCCOCCOCCOCCOCCOCCOCCCCCCOc3ccc(-c4ccc(=N)n(CCCC(=O)O)n4)cc3)nn2)cc1 [gabazine.1DART.2],"GCaMP signals, ddHTP mice",cerebellar granule cells,no impact on GCaMP signals
same,"granule cell activity, +HTP mice",cerebellar granule cells,pronounced increase in +HTP granule cell activity
same,"tonic GABAAR current, +HTP granule cells",GABAAR [2]; 100 nM,antagonizes the GABAAR in ^+HTP
same,HTL50 (half-maximal tethering concentration at 15 min),"GABAAR [2]; +HTP cells, tonic GABAAR current, read-out: HTL50 (t=15 m)",~50 nM
same,IC50,"GABAAR [2]; read-out: Rx50, ddHTP cells, tonic GABAAR current",~1000 nM
same,"GABAAR evoked IPSC block, +HTP cells",GABAAR [3],blocked the GABAAR-mediated IPSC
same,"GABAAR evoked IPSC, ddHTP cells",GABAAR [3],not on ^ddHTP cells
same,"GABAAR evoked IPSC block, +HTP cells",GABAAR [3]; listed as gabazine.1^DART.2,blocked on ^+HTP cells
same,DW (t=15 m),"endogenous GABAARs; ddHTP vs +HTP cells, 15 min, 15 uM GABA",500
COc1cc(CCCCl)ccc1CCOCCNC(=O)c1ccc(CNC(=O)CCOCCOCCOCCOCCOCCOCCOCCOCCOCCOCCOCCOCCOCCOCCOCCOCCOCCOCCOCCOCCOCCOCCOCCOCCOCCOCCOCCOCCOCCOCCOCCOCCOCCOCCOCCOCCn2cc(COCCNCCCNC(=O)CC(CNS(=O)(=O)C(C)C)c3ccc(CCNS(=O)(=O)C(C)C)cc3)nn2)cc1 (stereo not drawn) [CMPDA.2DART.2],positive modulation of the AMPAR,AMPAR [1],restored the ability of the reagent to bind and produce positive allosterically modulation of the AMPAR
same,"AMPAR evoked EPSC integral (total charge transfer) boost, +HTP cells",AMPAR [4],3 fold
same,"AMPAR evoked EPSC, ddHTP cells",AMPAR [4],No impact
same,"integrated EPSC charge transfer, +HTP RGCs",AMPAR [4],three-fold increase
same,"AMPAR evoked EPSC, ddHTP cells",AMPAR [4]; listed as CMPDA.2^DART.2,not ^ddHTP cells
